This note sets out measurements from patent US20230167073A1 (Teijin Pharma Limited, priority 2020, published 2023).

This test concerns the target T1, Human TRPC6 (Homo sapiens, UniProt Q9Y210).
T1 construct: expressed in transfected cells
T1 sequence (Q9Y210 1-931): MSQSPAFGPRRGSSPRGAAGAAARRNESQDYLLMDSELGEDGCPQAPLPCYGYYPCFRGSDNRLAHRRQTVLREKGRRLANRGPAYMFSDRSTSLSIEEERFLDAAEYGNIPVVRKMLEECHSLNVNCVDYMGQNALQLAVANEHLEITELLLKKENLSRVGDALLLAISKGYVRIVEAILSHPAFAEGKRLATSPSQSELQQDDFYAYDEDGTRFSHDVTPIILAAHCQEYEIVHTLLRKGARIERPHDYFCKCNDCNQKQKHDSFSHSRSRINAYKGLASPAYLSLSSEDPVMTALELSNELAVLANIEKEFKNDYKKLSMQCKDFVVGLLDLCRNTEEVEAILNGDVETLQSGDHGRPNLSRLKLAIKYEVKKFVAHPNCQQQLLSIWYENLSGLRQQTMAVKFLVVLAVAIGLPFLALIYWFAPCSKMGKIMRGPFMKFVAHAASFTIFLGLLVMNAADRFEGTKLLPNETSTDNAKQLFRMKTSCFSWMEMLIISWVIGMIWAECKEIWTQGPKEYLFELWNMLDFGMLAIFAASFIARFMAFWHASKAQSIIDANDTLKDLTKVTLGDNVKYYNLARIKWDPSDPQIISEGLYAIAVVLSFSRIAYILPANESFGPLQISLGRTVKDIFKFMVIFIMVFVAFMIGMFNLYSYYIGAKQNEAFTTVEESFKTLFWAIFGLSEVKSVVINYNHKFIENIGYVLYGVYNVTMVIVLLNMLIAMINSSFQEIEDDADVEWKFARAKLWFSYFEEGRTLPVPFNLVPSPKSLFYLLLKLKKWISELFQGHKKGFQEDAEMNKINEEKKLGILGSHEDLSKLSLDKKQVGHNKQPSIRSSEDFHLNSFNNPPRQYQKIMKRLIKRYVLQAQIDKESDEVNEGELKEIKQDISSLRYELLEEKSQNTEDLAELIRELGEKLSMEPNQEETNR
Description: Evaluation of TRPC6 channel inhibitory activity (2), HEK293 cells with stably introduced human TRPC6, OAG stimulation, FLIPR tetra (Compound Nos. 1293 to 1405). In kind it is cell-based. The following applies: HEK293 cells with stably introduced human TRPC6, OAG 50 μM/0.5% DMSO, read-out: Inhibitory activity (pIC50 class) (converted). The method, boiled down:
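Calcium-dye-loaded HEK293 cells stably expressing human TRPC6 were pretreated with compound for 25 min, then stimulated with 50 μM OAG (0.5% DMSO) in Ca ringer buffer pH 7.2 with 2 mM CaCl2. Background-subtracted FLIPR calcium peaks were normalized to OAG (100%) and buffer (0%); pIC50 came from four-parameter logistic fit, binned as +/++/+++.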

Turning to `Cn1nc(-c2ccccc2)nc1Oc1cc(Cl)ccc1-c1ncc(CCN)cn1` [compound 1365, 2-[2-[4-chloro-2-[(2-methyl-5-phenyl-1,2,4-triazol-3-yl)oxy]phenyl]pyrimidin-5-yl]ethanamine], the IC50 is over 1000 nM.

As for `Cn1nc(C2CC2)cc1Oc1cc(C#N)ccc1-c1ncc([C@@H](F)CN)cn1` [compound 1366, 4-[5-[(1R)-2-amino-1-fluoroethyl]pyrimidin-2-yl]-3-(5-cyclopropyl-2-methylpyrazol-3-yl)oxybenzonitrile], the IC50 was under 10 nM.

Turning to `Cn1nc(C2CC2)cc1Oc1cc(C#N)ccc1-c1ncc([C@H](F)CN)cn1` [compound 1367, 4-[5-[(1S)-2-amino-1-fluoroethyl]pyrimidin-2-yl]-3-(5-cyclopropyl-2-methylpyrazol-3-yl)oxybenzonitrile], the IC50 was under 10 nM.

For the compound `Cn1nc(C2CCOCC2)cc1Oc1cc(C#N)ccc1-c1ccc([C@@H](F)CN)cn1` [compound 1368, 4-[5-[(1R)-2-amino-1-fluoroethyl]pyridin-2-yl]-3-[2-methyl-5-(oxan-4-yl)pyrazol-3-yl]oxybenzonitrile], the IC50 is under 10 nM.

For the compound `Cn1nc(C2CCOCC2)cc1Oc1cc(C#N)ccc1-c1ccc([C@H](F)CN)cn1` [compound 1369, 4-[5-[(1S)-2-amino-1-fluoroethyl]pyridin-2-yl]-3-[2-methyl-5-(oxan-4-yl)pyrazol-3-yl]oxybenzonitrile], the IC50 was under 10 nM.

For `Cn1nc(C2CC2)cc1Oc1cc(Cl)cnc1-c1ccc([C@@H](F)CN)cn1` [compound 1370, (2R)-2-[6-[5-chloro-3-(5-cyclopropyl-2-methylpyrazol-3-yl)oxypyridin-2-yl]pyridin-3-yl]-2-fluoroethanamine], the IC50 is 10 to 1000 nM.

For `Cn1nc(C2CC2)cc1Oc1cc(Cl)cnc1-c1ccc([C@H](F)CN)cn1` [compound 1371, (2S)-2-[6-[5-chloro-3-(5-cyclopropyl-2-methylpyrazol-3-yl)oxypyridin-2-yl]pyridin-3-yl]-2-fluoroethanamine], the IC50 is under 10 nM.

In the case of `Cn1nc(C2CCOCC2)cc1Oc1cc(Cl)cnc1-c1ccc([C@@H](F)CN)cn1` [compound 1372, (2R)-2-[6-[5-chloro-3-[2-methyl-5-(oxan-4-yl)pyrazol-3-yl]oxypyridin-2-yl]pyridin-3-yl]-2-fluoroethanamine], the IC50 was over 1000 nM.

Consider `Cn1nc(C2CCOCC2)cc1Oc1cc(Cl)cnc1-c1ccc([C@H](F)CN)cn1` [compound 1373, (2S)-2-[6-[5-chloro-3-[2-methyl-5-(oxan-4-yl)pyrazol-3-yl]oxypyridin-2-yl]pyridin-3-yl]-2-fluoroethanamine], for which the IC50 was under 10 nM.

Turning to `Cc1nc(Oc2cc(Cl)ccc2-c2ncc([C@@H](F)CN)cn2)cc(N2CCOCC2)n1` [compound 1374, (2R)-2-[2-[4-chloro-2-(2-methyl-6-morpholin-4-ylpyrimidin-4-yl)oxyphenyl]pyrimidin-5-yl]-2-fluoroethanamine], the IC50 was 10 to 1000 nM.

On to `Cc1nc(Oc2cc(Cl)ccc2-c2ncc([C@H](F)CN)cn2)cc(N2CCOCC2)n1` [compound 1375, (2S)-2-[2-[4-chloro-2-(2-methyl-6-morpholin-4-ylpyrimidin-4-yl)oxyphenyl]pyrimidin-5-yl]-2-fluoroethanamine], for which the IC50 was 10 to 1000 nM.

With `Cc1nc(Oc2cc(Cl)ccc2-c2ncc([C@@H](O)CN)cn2)cc(N2CCOCC2)n1` [compound 1376, (1R)-2-amino-1-[2-[4-chloro-2-(2-methyl-6-morpholin-4-ylpyrimidin-4-yl)oxyphenyl]pyrimidin-5-yl]ethanol], the IC50 is 10 to 1000 nM.

`Cc1nc(Oc2cc(Cl)ccc2-c2ncc([C@H](O)CN)cn2)cc(N2CCOCC2)n1` [compound 1377, (1S)-2-amino-1-[2-[4-chloro-2-(2-methyl-6-morpholin-4-ylpyrimidin-4-yl)oxyphenyl]pyrimidin-5-yl]ethanol]: the IC50 was 10 to 1000 nM.

In the case of `Cc1nc(Oc2cc(Cl)ccc2-c2ncc(CCN)cn2)cc(N2CCOCC2)n1` [compound 1378, 2-[2-[4-chloro-2-(2-methyl-6-morpholin-4-ylpyrimidin-4-yl)oxyphenyl]pyrimidin-5-yl]ethanamine], the IC50 was 10 to 1000 nM.

As to `Cn1nc(-c2ccccn2)cc1Oc1cc(Cl)ccc1-c1ccc([C@H](N)C(F)(F)F)cn1` [compound 1379, (1S)-1-[6-[4-chloro-2-(2-methyl-5-pyridin-2-ylpyrazol-3-yl)oxyphenyl]pyridin-3-yl]-2,2,2-trifluoroethanamine], the IC50 is over 1000 nM.

On to `C[C@@H](N)c1ccc(-c2ccc(Cl)cc2Oc2cc(-c3ccccn3)nn2C)nc1` [compound 1380, (1R)-1-[6-[4-chloro-2-(2-methyl-5-pyridin-2-ylpyrazol-3-yl)oxyphenyl]pyridin-3-yl]ethanamine], for which the IC50 was under 10 nM.

As to `Cn1nc(C2CC2)cc1Oc1cc(F)ccc1-c1ncc([C@@H](F)CN)cn1` [compound 1382, (2R)-2-[2-[2-(5-cyclopropyl-2-methylpyrazol-3-yl)oxy-4-fluorophenyl]pyrimidin-5-yl]-2-fluoroethanamine], the IC50 is 10 to 1000 nM.

As for `Cn1nc(C2CC2)cc1Oc1cc(F)ccc1-c1ncc([C@H](O)CN)cn1` [compound 1383, (1S)-2-amino-1-[2-[2-(5-cyclopropyl-2-methylpyrazol-3-yl)oxy-4-fluorophenyl]pyrimidin-5-yl]ethanol], the IC50 is 10 to 1000 nM.

`Cn1nc(C2CC2)cc1Oc1cc(F)ccc1-c1ncc([C@@H](O)CN)cn1` [compound 1384, (1R)-2-amino-1-[2-[2-(5-cyclopropyl-2-methylpyrazol-3-yl)oxy-4-fluorophenyl]pyrimidin-5-yl]ethanol]: the IC50 is 10 to 1000 nM.

As for `Cc1cc(Oc2cc(Cl)cnc2-c2ncc(CCN)cn2)cc(N2CCOCC2)n1` [compound 1385, 2-[2-[5-chloro-3-(2-methyl-6-morpholin-4-ylpyridin-4-yl)oxypyridin-2-yl]pyrimidin-5-yl]ethanamine], the IC50 is 10 to 1000 nM.

`Cn1nc(C2CCOCC2)cc1Oc1cc(Cl)ccc1-c1ccc([C@H](F)CN)cn1` [compound 1386, (2S)-2-[6-[4-chloro-2-[2-methyl-5-(oxan-4-yl)pyrazol-3-yl]oxyphenyl]pyridin-3-yl]-2-fluoroethanamine]: the IC50 is 10 to 1000 nM.

As to `Cn1nc(C2CCOCC2)cc1Oc1cc(Cl)ccc1-c1ccc([C@@H](F)CN)cn1` [compound 1387, (2R)-2-[6-[4-chloro-2-[2-methyl-5-(oxan-4-yl)pyrazol-3-yl]oxyphenyl]pyridin-3-yl]-2-fluoroethanamine], the IC50 is under 10 nM.

For `Cn1nc(C2CCOCC2)cc1Oc1cc(Cl)ccc1-c1ncc([C@H](O)CN)cn1` [compound 1388, (1S)-2-amino-1-[2-[4-chloro-2-[2-methyl-5-(oxan-4-yl)pyrazol-3-yl]oxyphenyl]pyrimidin-5-yl]ethanol], the IC50 is 10 to 1000 nM.

In the case of `Cn1nc(C2CCOCC2)cc1Oc1cc(Cl)ccc1-c1ncc([C@@H](O)CN)cn1` [compound 1389, (1R)-2-amino-1-[2-[4-chloro-2-[2-methyl-5-(oxan-4-yl)pyrazol-3-yl]oxyphenyl]pyrimidin-5-yl]ethanol], the IC50 is 10 to 1000 nM.

`Cn1nc(C2CCOCC2)cc1Oc1cc(Cl)ccc1-c1ncc(CCN)cn1` [compound 1390, 2-[2-[4-chloro-2-[2-methyl-5-(oxan-4-yl)pyrazol-3-yl]oxyphenyl]pyrimidin-5-yl]ethanamine]: the IC50 is 10 to 1000 nM.

Consider `Cc1cc(Oc2cc(C#N)ccc2-c2ncc3c(n2)CNC3)cc(N2CCOCC2)n1` [compound 1392, 4-(6,7-dihydro-5H-pyrrolo[3,4-d]pyrimidin-2-yl)-3-(2-methyl-6-morpholin-4-ylpyridin-4-yl)oxybenzonitrile], for which the IC50 is over 1000 nM.

With `Cn1nc(-c2ccccn2)cc1Oc1cc(C#N)ccc1-c1ncc2c(n1)CNC2` [compound 1393, 4-(6,7-dihydro-5H-pyrrolo[3,4-d]pyrimidin-2-yl)-3-(2-methyl-5-pyridin-2-ylpyrazol-3-yl)oxybenzonitrile], the IC50 was 10 to 1000 nM.

In the case of `Cc1cc(Oc2cc(Cl)ccc2-c2ccc([C@@H](F)CN)cn2)cc(N2CCOCC2)n1` [compound 1394, (2R)-2-[6-[4-chloro-2-(2-methyl-6-morpholin-4-ylpyridin-4-yl)oxyphenyl]pyridin-3-yl]-2-fluoroethanamine], the IC50 was 10 to 1000 nM.

Consider `Cc1cc(Oc2cc(Cl)ccc2-c2ccc([C@@H](O)CN)cn2)cc(N2CCOCC2)n1` [compound 1395, (1R)-2-amino-1-[6-[4-chloro-2-(2-methyl-6-morpholin-4-ylpyridin-4-yl)oxyphenyl]pyridin-3-yl]ethanol], for which the IC50 was under 10 nM.
